In patent publication US12043600B2, “Microbiocidal compounds” (SYNGENTA CROP PROTECTION AG, priority 2018, dated 2024) one finds inhibition of growth, pest or weed control and melting point data, which are given here for eight molecules.

What is called inhibition of growth is the relative decrease from the control value, in per cent. What is called melting point is the temperature of the solid-liquid transition.

Molecules are shown by their SMILES.

Series [1] deals with Thanatephorus cucumeris (Rhizoctonia solani). In words: Thanatephorus cucumeris (Rhizoctonia solani)/Liquid Culture (Foot Rot, Damping-Off). The format is cell-based. To be noted: liquid culture, compared to untreated control. Here is the method:
Mycelia fragments of a newly grown liquid culture of the fungus are directly mixed into nutrient broth (PDB potato dextrose broth). After placing a (DMSO) solution of the test compounds into a microtiter plate (96-well format), the nutrient broth containing the fungal material is added.

The test system of another series is Phakopsora pachyrhizi. In words: Phakopsora pachyrhizi/Soybean/Preventative (Soybean Rust). To be noted: foliar, 288 h, 200 ppm, soybean leaf disc preventative, compared to untreated control, read-out: control of Phakopsora pachyrhizi. The format is in vivo.
A further series concerns Plasmopara viticola. In words: whole plant or invertebrate. To be noted: foliar, read-out: control of Plasmopara viticola. The format is in vivo.
The subject of series [2] is Monographella nivalis (Microdochium nivale). In words: Monographella nivalis (Microdochium nivale)/Liquid Culture (Foot Rot Cereals). It counts as cell-based. As to conditions: liquid culture, compared to untreated control. A digest of the protocol: (§1)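 PDB + cryo-stored conidia; compound in DMSO pre-plated, spore broth added on top.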
The next series deals with Phytophthora infestans. In words: whole plant or invertebrate. It counts as in vivo. To be noted: in Solanum lycopersicum, foliar, read-out: control of Phytophthora infestans.
Series [3] deals with Puccinia recondita f. sp. tritici. In words: Puccinia recondita f. sp. tritici/Wheat/Leaf Disc Preventative (Brown Rust). The format is in vivo. As to conditions: foliar, 200 ppm, wheat leaf disc preventative, compared to untreated control, read-out: control of Puccinia recondita f. sp. tritici.
The subject of series [4] is Glomerella lagenarium (Colletotrichum lagenarium). In words: Glomerella lagenarium (Colletotrichum lagenarium)/Liquid Culture (Anthracnose). The format is cell-based. To be noted: Colletotrichum orbiculare, liquid culture, compared to untreated control.
Series [5] relates to Mycosphaerella arachidis (Cercospora arachidicola). In words: Mycosphaerella arachidis (Cercospora arachidicola)/Liquid Culture (Early Leaf Spot). The format is cell-based. To be noted: liquid culture, compared to untreated control. Put shortly:
as §1

In series [6] the test system is Magnaporthe grisea (Pyricularia oryzae). In words: whole plant or invertebrate. To be noted: foliar, read-out: control of Magnaporthe grisea. The format is in vivo.
Series [7] deals with Botryotinia fuckeliana (Botrytis cinerea). In words: Botryotinia fuckeliana (Botrytis cinerea)/Liquid Culture (Gray Mould). It counts as cell-based. As to conditions: liquid culture, compared to untreated control. Here is the method: Conidia of the fungus from cryogenic storage are directly mixed into nutrient broth (Vogels broth). After placing a (DMSO) solution of test compound into a microtiter plate (96-well format), the nutrient broth containing the fungal spores is added.

The subject of series [8] is Mycosphaerella graminicola (Septoria tritici). In words: Mycosphaerella graminicola (Septoria tritici)/Liquid Culture (Septoria Blotch). It counts as cell-based. To be noted: Zymoseptoria tritici; 20 ppm; liquid culture; compared to untreated control. A digest of the protocol: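 Results given as % disease control: test compound in DMSO was placed in wells first, then potato dextrose broth carrying cryostored fungal conidia was added.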

Series [9] deals with Phaeosphaeria nodorum (Septoria nodorum). In words: Phaeosphaeria nodorum (Septoria nodorum)/Wheat/Leaf Disc Preventative (Glume Blotch). It counts as in vivo. As to conditions: Parastagonospora nodorum, foliar, wheat leaf disc preventative, compared to untreated control. Put shortly:
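Preventative test: compound spray first, then spore inoculation after 2 days on cv. Kanzler wheat leaf segments. Incubation in a climate cabinet at 20 °C and 75% rh under a 12 h light/12 h dark cycle. Activity rated as % control relative to untreated discs at 5–7 days post-application.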

A further series has as its system Alternaria solani. In words: Alternaria solani/Tomato/Leaf Disc (Early Blight). It counts as in vivo. To be noted: foliar, tomato leaf disc, compared to untreated control. The method, then:
Tomato leaf disks cv. Baby are placed on agar in multiwell plates (24-well format) and sprayed with the formulated test compound diluted in water. The leaf disks are inoculated with a spore suspension of the fungus 2 days after application. The inoculated leaf disks are incubated at 23° C./21° C. (day/night) and 80% rh (relative humidity) under a light regime of 12/12 h (light/dark) in a climate cabinet and the activity of a compound is assessed as percent disease control compared to untreated when an appropriate level of disease damage appears on untreated check disk leaf disks (5-7 days after application).

Series [10] relates to Puccinia recondita f. sp. tritici. In words: Puccinia recondita f. sp. tritici/Wheat/Leaf Disc Curative (Brown Rust). It counts as in vivo. To be noted: foliar, wheat leaf disc curative, compared to untreated control. Put shortly: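 Formulated compound, diluted in water, is applied to inoculated wheat cv. Kanzler leaf segments on agar one day post-inoculation (pre-incubation dark, 19° C, 75% rh). After 6-8 days at 19° C, 75% rh and 12 h/12 h light, activity is rated as percent disease control relative to untreated segments.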

Series [11] has as its system Blumeria graminis f. sp. tritici (Erysiphe graminis f. sp. tritici). In words: Blumeria graminis f. sp. tritici/Wheat/Leaf Disc Preventative (Powdery Mildew on Wheat). It counts as in vivo. To be noted: foliar, wheat leaf disc preventative, compared to untreated control. Put shortly: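 Preventative leaf-disc test: percent disease control versus untreated leaf segments read 6-8 days post-application. Compound spray applied to wheat cv. Kanzler segments on agar one day before shaking infected plants over them; incubation at 20° C and 60% rh, 24 h darkness then 12 h light/12 h dark cycles.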

Another series deals with Pyrenophora teres. In words: Pyrenophora teres/Barley/Leaf Disc Preventative (Net Blotch). The format is in vivo. As to conditions: foliar, 200 ppm, barley leaf disc preventative, compared to untreated control, read-out: control of Pyrenophora teres. Put shortly: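 Preventative leaf-disc test: inoculation with fungal spores took place 2 days after spraying segments of barley cv. Hasso, placed on agar, with water-diluted formulated compound. Read-out is % disease control per compound.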

Turning to `CCOc1cnn(-c2ccc(C)c(O/C(=C\OC)C(=O)OC)c2)c1` [Compound E-52, methyl (Z)-2-[5-(4-ethoxypyrazol-1-yl)-2-methyl-phenoxy]-3-methoxy-prop-2-enoate], the inhibition of growth at 20 ppm in [1], in [2], in series [4], in [5], in series [7] and in series [8] was ≥ 80% throughout. The pest or weed control at 200 ppm was ≥ 50% in the series with Phakopsora pachyrhizi; ≥ 80% with Plasmopara viticola; ≥ 80% with Phytophthora infestans; ≥ 80% in series [3]; ≥ 80% in series [6].

On to `CO/C=C(\Oc1cc(-n2cc(SC(C)C)cn2)ccc1C)C(=O)OC` [Compound E-53, methyl (Z)-2-[5-(4-isopropylsulfanylpyrazol-1-yl)-2-methyl-phenoxy]-3-methoxy-prop-2-enoate], for which the inhibition of growth at 20 ppm in [1], in [2], in series [4], in series [5], in series [7] and in series [8] was ≥ 80% each time. In addition, the pest or weed control at 200 ppm (with Plasmopara viticola; in the series with Phytophthora infestans; in series [3]; in series [9]; in [6]) was ≥ 80% throughout.

In the case of `CO/C=C(\Oc1cc(-n2ncc(C(C)=NO)n2)ccc1C)C(=O)OC` [Compound F-13, methyl (Z)-2-[5-[4-(N-hydroxy-C-methyl-carbonimidoyl)triazol-2-yl]-2-methyl-phenoxy]-3-methoxy-prop-2-enoate], the melting point fell in the range of 146 to 150 °C. Further, the pest or weed control at 200 ppm in the series on Plasmopara viticola was ≥ 80%. Moreover, the inhibition of growth at 20 ppm in series [2] was ≥ 80%. Also, the pest or weed control at 200 ppm with Phytophthora infestans is ≥ 80%. In addition, the pest or weed control at 200 ppm with Alternaria solani was ≥ 80%. Further, the pest or weed control at 200 ppm in series [3] was ≥ 80%. In addition, the pest or weed control at 200 ppm in [9] is ≥ 80%. The pest or weed control at 200 ppm in series [10] was ≥ 80%. Further, the inhibition of growth at 20 ppm in series [4] was ≥ 80%. In [5], the inhibition of growth at 20 ppm was ≥ 80%. For the same molecule, in [11], the pest or weed control at 200 ppm was ≥ 80%. Further, in the series with Pyrenophora teres, the pest or weed control at 200 ppm was ≥ 80%. Moreover, in series [6], the pest or weed control at 200 ppm was ≥ 80%. For the same molecule, the inhibition of growth at 20 ppm in series [8] is ≥ 80%.

In the case of `C#Cc1cnn(-c2ccc(C)c(O/C(=C\OC)C(=O)OC)c2)c1` [Compound E-48, methyl (Z)-2-[5-(4-ethynylpyrazol-1-yl)-2-methyl-phenoxy]-3-methoxy-prop-2-enoate], the inhibition of growth at 20 ppm in series [1], in [2], in [4], in series [5], in series [7] and in [8] was ≥ 80% throughout. For the same molecule, the pest or weed control at 200 ppm (in the series on Plasmopara viticola; in the series with Phytophthora infestans; in [3]; in [9]; in [10]; in series [11]) was ≥ 80% in each case.

On to `CO/C=C(\Oc1cc(-n2cc(C3CC3)cn2)ccc1C)C(=O)OC` [Compound E-50, methyl (Z)-2-[5-(4-cyclopropylpyrazol-1-yl)-2-methyl-phenoxy]-3-methoxy-prop-2-enoate], for which the inhibition of growth at 20 ppm in series [1], in [2], in series [4], in series [5], in [7] and in series [8] was ≥ 80% each time. Also, the pest or weed control at 200 ppm in the series on Phakopsora pachyrhizi is ≥ 50%; in the series on Plasmopara viticola, ≥ 80%; in the series on Phytophthora infestans, ≥ 80%; in series [3] it was ≥ 80%; in series [9], ≥ 80%; in [11] it was ≥ 80%. The pest or weed control at 200 ppm in series [6] is ≥ 80%.

On to `CO/C=C(\Oc1cc(-n2ccc(C3(C)CC3)n2)ccc1C)C(=O)OC` [Compound E-82, methyl (Z)-3-methoxy-2-[2-methyl-5-[3-(1-methylcyclopropyl)pyra-zol-1-yl]phenoxy]prop-2-enoate], for which the melting point lay in the range of 83 to 86 °C. In the series on Phakopsora pachyrhizi, the pest or weed control at 200 ppm was ≥ 50%. Moreover, the pest or weed control at 200 ppm with Plasmopara viticola was ≥ 80%. Also, the inhibition of growth at 20 ppm in [2] was ≥ 80%. Also, in the series with Phytophthora infestans, the pest or weed control at 200 ppm is ≥ 80%. Moreover, in the series with Alternaria solani, the pest or weed control at 200 ppm is ≥ 80%. Further, the pest or weed control at 200 ppm in series [3] is ≥ 80%. The pest or weed control at 200 ppm in [9] is ≥ 80%. In addition, the pest or weed control at 200 ppm in [10] is ≥ 80%. Besides, the inhibition of growth at 20 ppm in series [4] is ≥ 80%. Moreover, in [5], the inhibition of growth at 20 ppm is ≥ 80%. For the same molecule, in [11], the pest or weed control at 200 ppm was ≥ 80%. For the same molecule, the pest or weed control at 200 ppm with Pyrenophora teres was ≥ 80%. Also, in series [6], the pest or weed control at 200 ppm is ≥ 80%. The inhibition of growth at 20 ppm in series [7] is ≥ 80%. Also, the inhibition of growth at 20 ppm in series [8] is ≥ 80%.

Take `CO/C=C(\Oc1cc(C)cc(-n2ccc(C(C)C)n2)c1)C(=O)OC` [Compound E-35, methyl (Z)-2-[3-(3-isopropylpyrazol-1-yl)-5-methyl-phenoxy]-3-methoxy-prop-2-enoate]: the inhibition of growth at 20 ppm in [1], in series [2], in series [4], in series [5], in series [7] and in series [8] was ≥ 80% throughout. The pest or weed control at 200 ppm in the series with Phakopsora pachyrhizi is ≥ 50%; in the series with Plasmopara viticola, ≥ 80%; in the series with Phytophthora infestans, ≥ 80%; in series [3], ≥ 80%; in [10], ≥ 80%; in [11], ≥ 80%. In addition, the pest or weed control at 200 ppm in [6] was ≥ 80%.

As to `CO/C=C(\Oc1cc(-n2cc(C)cn2)ccc1C)C(=O)OC` [Compound E-59, methyl (Z)-3-methoxy-2-[2-methyl-5-(4-methylpyrazol-1-yl)phenoxy]prop-2-enoate], the inhibition of growth at 20 ppm in [1], in series [2], in series [4], in series [5], in series [7] and in series [8] was ≥ 80% in each case. In addition, the pest or weed control at 200 ppm is ≥ 50% in the series with Phakopsora pachyrhizi; ≥ 80% in the series with Plasmopara viticola; ≥ 80% in the series on Phytophthora infestans; ≥ 80% in series [3]; ≥ 80% in series [9]; ≥ 80% in [11]. In addition, in series [6], the pest or weed control at 200 ppm was ≥ 80%.
